Test: Compound was tested for the inhibitory activity against alpha-mannosidase

Compound	IC50
CS[C@@H]1[C@@H](N)[C@@H](O)C[C@H]1O	31 µM
CS[C@H]1[C@H](O)[C@H](O)C[C@@H]1N	> 100 µM

Further compounds by falling IC50, results first:

IC50	Compound
42 µM	OCC1NC(O)C(O)C(O)C1O (stereo not given)
28 µM	CS[C@H]1C[C@H](O)[C@H](O)[C@@H]1N
0.24 µM	CS[C@@H]1[C@@H](N)[C@@H](O)[C@@H](O)[C@H]1O [MANNOSTATIN A]
